One data set deals with CNV lesions. Conditions: mouse, in vivo, ip. The protocol: One week after laser induction, mice with choroidal neovascularization were randomly divided into two groups (10 mice per group), and injected intraperitoneally with 5 mg of FITC-JP1 and 0.99 mg of FITC 100 uL (both groups were injected with equal amounts of FITC intraperitoneally), respectively. The intensity of FITC in the living retina was determined using the FFA method (n=5/group). To evaluate the accumulation of FITC in CNV lesions, mice were euthanized at 1, 3, 8, 24, and 48 h after intraperitoneal injection of FITC-JP1 or FITC, respectively. Then, choroidal spreads were observed by fluorescence microscopy.

Data set [1] is described as follows: Solubility of the synthesized peptides. In kind it is physicochemical. The protocol:
Peptide JP1 and others were synthesized by GL Biochem (Shanghai) Ltd. and Hybio Pharmaceutical Co., Ltd. (Shenzhen, China, under standard GMP conditions. Purity >98%, water-soluble. Freeze dried powder is stored for a long time at −20° C.

Data set [2] has as its system streptozotocin (STZ)-induced diabetes mouse model. The experiment in a line: Streptozotocin-induced diabetes mouse model: retinal vascular density and leakage. It counts as in vivo. The following applies: STZ diabetic mice, intraocular injection once a week, 4 times; compared to normal mice of the same age. The protocol:
C57BL/6 mice (male, 3-5 weeks old) were administered with intraperitoneal injection of streptozotocin (STZ) (7.5 mg/mL; S-0130, Sigma Aldrich, St. Louis, MO, USA), fresh dissolved Na Citrate (CAM) buffer (pH: 4.5-4.7; S4641, Sigma) at a dose of 50 mg/kg, once daily, for 5 consecutive days. After one week, blood sugar ≥300 mg/dL was regarded as the onset of diabetes. Only mice with sustained high sugar for 3 weeks were used for subsequent experiments. […] The blood glucose of mice was measured every month to confirm the status of diabetes. Two months after the onset of diabetes, the mice were randomly divided into four groups with 10 mice in each group. […]
After the mice were anesthetized, 1 mL of PBS containing 40 mg/mL fluorescein isothiocyanate-glucan was perfused into the left ventricle (average mol wt: 2×10^6, Sigma, St Louis, MO, USA). […] Stretched preparation was made, and observe the flat bracket using a fluorescence microscope and take photos. The vascular density of capillary networks was analyzed using Angio Tool image analysis software. […]
Evans blue (45 mg/kg) was injected through the tail vein of mice for more than 10 s. […] Plasma Evans blue concentration was determined by taking 100 uL of blood. […]

Where a SMILES comes first, the peptide text is derived from it.

As for `N=C(N)NCCC[C@H](NC(=O)[C@H](Cc1ccccc1)NC(=O)[C@H](CCCNC(=N)N)NC(=O)[C@H](CC(=O)O)NC(=O)[C@H](COP(=O)(O)O)NC(=O)CNC(=O)[C@@H]1CCCN1C(=O)[C@@H](N)Cc1ccccc1)C(=O)NCC(=O)N[C@@H](CC(=O)O)C(=O)O` [JP1] (HELM PEPTIDE1{F.P.G.[O=C([C@H](COP(=O)(O)O)N[*:1])[*:2]].D.R.F.R.G.D}$$$$V2.0; N-terminus and C-terminus assumed), in the data set with CNV lesions, the “accumulation of FITC at CNV lesions (retinal choroidal plain films)” value is given as “enhanced the accumulation of FITC at CNV lesions”. Besides, the solubility entry in data set [1] is listed as “water-soluble”.

B1: Ranibizumab (antibody, chains of the INN, looked up, V domains shown)
VH: EVQLVESGGGLVQPGGSLRLSCAASGYDFTHYGMNWVRQAPGKGLEWVGWINTYTGEPTYAADFKRRFTFSLDTSKSTAYLQMNSLRAEDTAVYYCAKYPYYYGTSHWYFDVWGQGTLVTVSS
VL: DIQLTQSPSSLSASVGDRVTITCSASQDISNYLNWYQQKPGKAPKVLIYFTSSLHSGVPSRFSGSGSGTDFTLTISSLQPEDFATYYCQQYSTVPWTFGQGTKVEIK
modifications: Fab
notes: anti-VEGF antibody drug used as positive control
As to B1, the retinal vascular density entry in data set [2] was “no significant decrease in retinal vascular density”.

The record behind these values is patent publication US20240277797A1, “METHOD FOR TREATING OR PREVENTING NEOVASCULAR EYE DISEASE” (Suzhou Mingren Pharmaceutical Biotechnology Co., Ltd., priority 2022, published 2024).
